Results reported in article PMC4603705, “A bioinspired peptide scaffold with high antibiotic activity and low in vivo toxicity” (Scientific Reports, 2015).
Values after ≈ are worked out from the molar mass of the structure shown. Values joined by “and” are separate entries in the source; they are usually repeats but may differ in a detail not shown here. Equal entries are not always repeated. Where two headings read alike, the source gives them in different places.

Tests used:
[1] = test system: S. aureus; test: microbe, parasite or virus in culture; format: cell-based, Staphylococcus aureus; details: Staphylococcus aureus
Experimental: (§1) MICs were measured after 18–20 h of incubation in sterile 96-well plates (Corning Costar 3598 microtiter plates) in Mueller Hinton Broth (MHB) culture medium, (Difco, USA), according to well known in vitro protocols. Bacterial strains in Table 1 were: P. aeruginosa ATTC 9027, E. coli ATTC 8739, S. aureus ATTC 6538, and E. faecalis ATTC 29212. MICs shown in table 4 were performed by Mary Conrad at Cubist Pharmaceuticals (Lexington, MA) in non-binding surface plates.

[2] = test system: S. aureus ATTC 6538; test: microbe, parasite or virus in culture; format: cell-based, Staphylococcus aureus; details: Staphylococcus aureus, ATTC6538, read-out: MIC S. aureus
Experimental: as §1

[3] = test system: E. faecalis ATTC 29212; test: microbe, parasite or virus in culture; format: cell-based, Enterococcus faecalis; details: Enterococcus faecalis, ATTC29212, read-out: MIC E. faecalis Wild type ATTC 29212
Experimental: Lipopeptide 39 was chosen for this, as it is known that long fatty acids tend to favor activity against Gram-positive bacteria in polymyxin analogs. […] In summary, new broad-spectrum antimicrobial lipopeptides were achieved.
as §1

[4] = test system: E. coli (ATCC 25922); test: Flow cytometry (PI membrane permeability, BOX membrane potential), E. coli; format: cell-based, Escherichia coli; details: 5 μg/mL
Experimental: The mechanism of action at the membrane level of our best candidate was studied using flow cytometry. To assess membrane permeability, a propidium iodide (PI) probe was used[43][44]. The fluorescence conferred by this probe is generally associated with cells that have lost their membrane integrity. The effect on membrane potential was evaluated with bis-(1,3-dibutylbarbituric acid) trimethine oxonol (BOX). Membrane depolarization leads to the incorporation of this anionic dye into the cell where it binds to lipid-rich intracellular compounds, resulting in an increase in fluorescence.
(§2) An overnight culture (12 to 16 h) of S. aureus (ATCC 29213) or E. coli (ATCC 25922) in Tryptic Soy Broth (TSB) was grown at 37 °C and 400 μL were added in 50 mL of tryptone water (∼10^7 bacteria/mL). The bacterial suspension was split into aliquots of 4-5 mL and treated with the peptides (at the MIC) for different incubation times at room temperature. Cells were collected by centrifugation (10000 rpm, 20 min) and resuspended in 1 mL of filtered Ringer’s solution.
A stock solution of propidium iodide (PI, 1 mg/mL, Molecular Probes) and bis-(1,3-dibutylbarbituric acid) trimethine oxonol (BOX, 250 μM, Sigma Aldrich) was prepared in distilled water. Portions (10 μL and 2 μL, respectively) were added to aliquots of cells (100 μL of each sample in 1 mL of Ringer’s solution) to give a final concentration of 10 μg/mL of PI and 0.5 μM for BOX.
Flow cytometric measurements were performed on a Gallios multi-colour flow cytometer instrument (Beckman Coulter, Inc, Fullerton, CA) set up with the 3-lasers 10 colors standard configuration. Excitation was done using a blue (488 nm) laser. Forward scatter (FS), side scatter (SS), green fluorescence (525/40 nm) from BOX and red fluorescence (620/30 nm) emitted by PI were collected using logarithmic scales. FS was used as the discriminating parameter. The single-cell bacterial population was selected on a forward-side scatter plot. Fluorescence was presented in a dot plot of BOX vs. PI. Three regions were defined on this graph according to the controls: depolarized, permeabilized and non-affected cells. Control cells (non-stained and single stained populations) were used to define these regions. 25,000 cells defined according to their scatter parameters were counted in each sample.

[5] = test system: E. coli (ATCC 25922); test: Reduction of viability by plate count, E. coli; format: cell-based, Escherichia coli; details: 5 μg/mL
Experimental: as §2

[6] = no reference given, cited from earlier work
[7] = test system: P. aeruginosa
Experimental: (§3) Strains of E. coli and P. aeruginosa with resistance to quinolones and carbapenems as well as multi-drug-resistant bacteria were tested.
as §1

[8] = test system: E. coli
Experimental: as §3, §1

[9] = resistant to nalidixic acid, cotrimoxazole and ampicillin

Which results are given for `CN[C@H](CC(C)C)C(=O)N[C@H]1C(=O)N[C@@H](CC(N)=O)C(=O)N[C@H]2C(=O)N[C@H]3C(=O)N[C@H](C(=O)N[C@H](C(=O)O)c4cc(O)cc(O)c4-c4cc3ccc4O)[C@H](O)c3ccc(c(Cl)c3)Oc3cc2cc(c3O[C@@H]2O[C@H](CO)[C@@H](O)[C@H](O)[C@H]2O[C@H]2C[C@](C)(N)[C@H](O)[C@H](C)O2)Oc2ccc(cc2Cl)[C@H]1O` [Vancomycin]?
MIC ([1]; read-out: MIC S. aureus DR, MR SAU.1616): 2 µg/mL (≈ 1.38 µM); MIC ([1]; read-out: MIC S. aureus DR, MS SAU.278): 2 µg/mL (≈ 1.38 µM); MIC ([1]; read-out: MIC S. aureus MR ATTC 43300): 2 µg/mL (≈ 1.38 µM); MIC ([1]; read-out: MIC S. aureus MR SAU.1118): 0.5 µg/mL (≈ 0.345 µM); MIC ([1]; read-out: MIC S. aureus MS ATTC 29213): 0.5 to 1 µg/mL (≈ 0.345 to 0.69 µM); MIC [2]: 1 µg/mL (≈ 0.69 µM); MIC [3]: 2 µg/mL (≈ 1.38 µM)

Which “% of stained cells BOX” value ([4]; 30 min) does the source give for PxB nonapeptide [PxBN] here?
Its value is 5%.

And the “% of stained cells PI” value ([4]; 30 min)?
Its value is 10%.

And the “% of stained cells BOX” value ([4]; 60 min)?
The value was 3%-6% and 6%.

And the “% of stained cells PI” value ([4]; 60 min)?
Its value is 3%-6% and 3%.

What about the “% viability reduction” value ([5]; 30 min) of the same molecule?
The value was 0%.

What about the “% viability reduction” value ([5]; 60 min) of the same molecule?
Its value is 5%.

Which half-life ([6]; administered in vivo) does the source give for Somatostatin here?
Its half-life is 2 to 3 min.

Which results are given for colistin [PxE, reference compound]?
MIC P. aeruginosa 38a ([7]; resistant to ceftazidime, ciprofloxacin, imipenem, piperacillin-tazobactam): 1 µg/mL; MIC P. aeruginosa 40b ([7]; resistant to imipenem): 1 µg/mL; MIC E. coli NDM-1 ([8]; highly-resistant, New Delhi metallo-beta-lactamase gene): 0.5 µg/mL; MIC E. coli VAL 5 ([8]; resistant to nalidixic acid): 0.25 µg/mL; MIC E. coli MAC 21a [8, 9]: 0.5 µg/mL; MIC E. coli VAL 10 [8, 9]: 0.5 µg/mL

Which half-lives ([6]; metabolic degradation) does the source give for lanreotide [reference compound] here?
Its half-lives is 2 to 3 h.
